# From BindingDB's records for doi:10.7270/Q2CV4GM1 (D3R/Abbott, 2015)
# Where “and” joins values, the source holds several entries; their conditions need not be identical. Equal entries are not always repeated.
# Target: T1, Tyrosine-protein kinase SYK [355-635] (Homo sapiens, UniProt P43405)
# T1 construct: 355-635
# Experiment: SYK assay_HTRF
row,Structure (SMILES),IC50
1,O=C(O)COc1ccc(Nc2nccc(Nc3cccc4[nH]ncc34)n2)cc1 [GTC000198A],326 nM
2,Cc1noc(NS(=O)(=O)Cc2ccc(Nc3nccc(Nc4cccc5[nH]ncc45)n3)cc2)c1C [GTC000200A],887 nM and 1810 nM
3,Cc1nc(NS(=O)(=O)Cc2ccc(Nc3nccc(Nc4cccc5[nH]ncc45)n3)cc2)sc1C [GTC000201A],1100 nM
4,O=C(COc1ccc(Nc2nccc(Nc3cccc4[nH]ncc34)n2)cc1)NCCCN1CCCC1=O [GTC000204A],2070 nM
5,COc1cccc(NC(=O)Cc2ccc(Nc3nccc(Nc4cccc5[nH]ncc45)n3)cc2)c1 [GTC000209A],524 nM
6,O=C(Cc1ccc(Nc2nccc(Nc3cccc4[nH]ncc34)n2)cc1)Nc1ccc(C(F)(F)F)cc1 [GTC000211A],2930 nM
7,O=C(Cc1ccc(Nc2nccc(Nc3cccc4[nH]ncc34)n2)cc1)Nc1cccc(C(F)(F)F)c1 [GTC000212A],1040 nM
8,Cc1nc(NC(=O)Cc2ccc(Nc3nccc(Nc4cccc5[nH]ncc45)n3)cc2)sc1C [GTC000215A],676 nM
9,O=C(Cc1ccc(Nc2nccc(Nc3cccc4[nH]ncc34)n2)cc1)Nc1ccncc1 [GTC000216A],828 nM
10,CS(=O)(=O)Nc1ccc(Nc2nccc(Nc3cccc4[nH]ncc34)n2)cc1 [GTC000217A],414 nM
11,O=C(Cc1ccc(Nc2nccc(Nc3cccc4[nH]ncc34)n2)cc1)Nc1cccnc1 [GTC000219A],543 nM
12,Cc1ccc(S(=O)(=O)Nc2ccc(Nc3nccc(Nc4cccc5[nH]ncc45)n3)cc2)cc1 [GTC000220A],916 nM
13,CCN(c1nc(Nc2ccc3c(c2)S(=O)(=O)NC3)ncc1Cl)c1cccc2[nH]ncc12 [GTC000222A],12.7 nM and 15.6 nM and 9.33 nM
14,O=S1(=O)NCc2ccc(Nc3nccc(N(CCO)c4cccc5[nH]ncc45)n3)cc21 [GTC000223A],3.45 nM
15,COCCCN(c1nc(Nc2ccc3c(c2)S(=O)(=O)NC3)ncc1F)c1cccc2[nH]ncc12 [GTC000228C],2.45 nM and 1.1 nM and 2.07 nM and 1.38 nM and 3.35 nM and 1.47 nM and 2.08 nM and 7 nM and 4.35 nM and 2.02 nM and 5.36 nM and 2 nM and 3.66 nM and 2.13 nM and 2.86 nM
16,O=S1(=O)CCc2ccc(Nc3ncc(F)c(N(CCCCO)c4cccc5[nH]ncc45)n3)cc21 [GTC000235A],9.64 nM and 1.94 nM and 1.64 nM
17,COCCCN(c1ccnc(Nc2ccc3c(c2)S(=O)(=O)NC3)n1)c1cccc2[nH]ncc12 [GTC000236A],2.69 nM and 1.48 nM and 4.88 nM and 4.34 nM

row,Structure (SMILES),IC50
1,COCCCN(c1ccnc(Nc2ccc3c(c2)COC(=O)N3)n1)c1cccc2[nH]ncc12 [GTC000238A],2.92 nM
2,O=S1(=O)NCc2ccc(Nc3nccc(N(CCCCO)c4cccc5[nH]ncc45)n3)cc21 [GTC000241A],2.9 nM
3,CCCN(c1nc(Nc2ccc3c(c2)S(=O)(=O)NC3)ncc1F)c1cccc2[nH]ncc12 [GTC000243A],4.09 nM and 3.13 nM and 3.56 nM and 9.55 nM and 5 nM and 4.1 nM and 3.04 nM and 3.52 nM and 5.97 nM
4,NCCCCCN(c1ccnc(Nc2ccc3c(c2)S(=O)(=O)NC3)n1)c1cccc2[nH]ncc12 [GTC000244A],3 nM and 3.31 nM and 5.53 nM
5,O=C(O)CCCN(c1ccnc(Nc2ccc3c(c2)S(=O)(=O)NC3)n1)c1cccc2[nH]ncc12 [GTC000245A],3.88 nM
6,NCCCN(c1nc(Nc2ccc3c(c2)S(=O)(=O)CC3)ncc1F)c1cccc2[nH]ncc12 [GTC000252A],4.94 nM
7,O=S1(=O)CCc2ccc(Nc3ncc(F)c(N(CCO)c4cccc5[nH]ncc45)n3)cc21 [GTC000254A],4.75 nM
8,O=c1[nH]c2ccc(Nc3nccc(N(CCCO)c4cccc5[nH]ncc45)n3)cc2[nH]1 [GTC000256A],5.01 nM
9,COCCCN(c1ccnc(Nc2ccc3nn[nH]c3c2)n1)c1cccc2[nH]ncc12 [GTC000257A],5.04 nM
10,O=C1Nc2ccc(Nc3nccc(N(CCO)c4cccc5[nH]ncc45)n3)cc2CO1 [GTC000258A],5 nM
11,CN(c1nc(Nc2ccc3[nH]c(=O)[nH]c3c2)ncc1F)c1cccc2[nH]ncc12 [GTC000264A],5.3 nM
12,CCN(c1nc(Nc2ccc3nn[nH]c3c2)ncc1F)c1cccc2[nH]ncc12 [GTC000267A],6.27 nM
13,Cn1ncc2ccc(Nc3nccc(N(CCCCO)c4cccc5[nH]ncc45)n3)cc21 [GTC000274A],5.89 nM
14,CN(c1nc(Nc2ccc3cnn(C)c3c2)ncc1F)c1cccc2[nH]ncc12 [GTC000276A],5.98 nM
15,CCN(c1nc(Nc2ccc3c(c2)S(=O)(=O)CC3)ncc1F)c1cccc2[nH]ncc12 [GTC000277A],7.19 nM and 7.62 nM
16,O=S1(=O)CCc2ccc(Nc3ncc(F)c(N(CC4CCCO4)c4cccc5[nH]ncc45)n3)cc21 (stereo unspecified) [GTC000278A],7.98 nM

# The remaining lines, values ahead:
row,IC50,Structure (SMILES)
1,490 nM,COC(=O)COc1ccc(Nc2nccc(Nc3cccc4[nH]ncc34)n2)cc1 [GTC000199A]
2,706 nM,O=C1CCCN1CCCNS(=O)(=O)Cc1ccc(Nc2nccc(Nc3cccc4[nH]ncc34)n2)cc1 [GTC000202A]
3,746 nM,O=S(=O)(Cc1ccc(Nc2nccc(Nc3cccc4[nH]ncc34)n2)cc1)NCCCO [GTC000203A]
4,925 nM,Cc1noc(NC(=O)Cc2ccc(Nc3nccc(Nc4cccc5[nH]ncc45)n3)cc2)c1C [GTC000205A]
5,640 nM,Cc1cc(NC(=O)Cc2ccc(Nc3nccc(Nc4cccc5[nH]ncc45)n3)cc2)no1 [GTC000206A]
6,232 nM,CS(=O)(=O)Cc1ccc(Nc2nccc(Nc3cccc4[nH]ncc34)n2)cc1 [GTC000207A]
7,849 nM,COc1ccc(NC(=O)Cc2ccc(Nc3nccc(Nc4cccc5[nH]ncc45)n3)cc2)cc1 [GTC000208A]
8,100 nM and 72.8 nM and 258 nM and 524 nM,O=C(O)c1ccc(Nc2nccc(Nc3cccc4[nH]ncc34)n2)cc1 [GTC000210A]
9,1390 nM,O=C(Cc1ccc(Nc2nccc(Nc3cccc4[nH]ncc34)n2)cc1)Nc1cccc(Cl)c1 [GTC000213A]
10,1400 nM,O=C(Cc1ccc(Nc2nccc(Nc3cccc4[nH]ncc34)n2)cc1)Nc1ccc(Cl)cc1 [GTC000214A]
11,1260 nM,CNC(=O)Cc1ccc(Nc2nccc(Nc3cccc4[nH]ncc34)n2)cc1 [GTC000218A]
12,164 nM and 78.2 nM and 235 nM,c1cc(Nc2ccnc(Nc3ccc4[nH]ncc4c3)n2)c2cn[nH]c2c1 [GTC000221A]
13,11.1 nM,Cc1ncoc1-c1cccc(Nc2nccc(N(CCCO)c3cccc4[nH]ncc34)n2)c1 [GTC000224A]
14,20.6 nM and 18.5 nM,Cn1ncc2cc(Nc3nccc(N(CCCO)c4cccc5[nH]ncc45)n3)ccc21 [GTC000225A]
15,0.412 nM and 0.746 nM and 2.23 nM and 3.35 nM and 0.925 nM and 2.21 nM and 3.52 nM and 3.44 nM,O=S1(=O)NCc2ccc(Nc3nccc(N(CCCO)c4cccc5[nH]ncc45)n3)cc21 [GTC000226B]
16,0.857 nM and 0.75 nM and 3.63 nM,NCCCN(c1ccnc(Nc2ccc3c(c2)S(=O)(=O)NC3)n1)c1cccc2[nH]ncc12 [GTC000227A]
17,1.41 nM and 1.19 nM and 2.47 nM,O=C(O)CCCCN(c1ccnc(Nc2ccc3c(c2)S(=O)(=O)NC3)n1)c1cccc2[nH]ncc12 [GTC000229A]
18,1.46 nM,O=S1(=O)NCc2ccc(Nc3ncc(F)c(N(CCCO)c4cccc5[nH]ncc45)n3)cc21 [GTC000230A]
19,1.42 nM,CC(=O)NCCCCN(c1ccnc(Nc2ccc3[nH]c(=O)[nH]c3c2)n1)c1cccc2[nH]ncc12 [GTC000231A]
20,2.05 nM,OCCN(c1ccnc(Nc2ccc3nn[nH]c3c2)n1)c1cccc2[nH]ncc12 [GTC000232A]
21,4.79 nM and 2.46 nM and 1.87 nM,Cc1nn(CCCO)c2cc(Nc3ncc(F)c(N(CCCO)c4cccc5[nH]ncc45)n3)ccc12 [GTC000234A]
22,1.87 nM and 6.87 nM and 3.76 nM and 3.14 nM and 8.63 nM and 2.75 nM,CCN(c1nc(Nc2ccc3[nH]c(=O)[nH]c3c2)ncc1F)c1cccc2[nH]ncc12 [GTC000237B]
23,3.16 nM,CS(=O)(=O)NCCCN(c1ccnc(Nc2ccc3[nH]c(=O)[nH]c3c2)n1)c1cccc2[nH]ncc12 [GTC000239A]
24,3.21 nM and 19 nM and 19.8 nM and 17.2 nM,CCN(c1nc(Nc2cccc(S(N)(=O)=O)c2)ncc1F)c1cccc2[nH]ncc12 [GTC000240B]

row,IC50,Structure (SMILES)
1,3.61 nM and 9.62 nM and 1.58 nM and 2.77 nM and 3.88 nM,CCN(c1nc(Nc2ccc3c(C)nn(CCCO)c3c2)ncc1F)c1cccc2[nH]ncc12 [GTC000242A]
2,3.6 nM,COCCCN(c1ccnc(Nc2ccc3[nH]c(=O)[nH]c3c2)n1)c1cccc2[nH]ncc12 [GTC000246A]
3,4.25 nM,CCN(c1nc(Nc2ccc3cn[nH]c3c2)ncc1F)c1cccc2[nH]ncc12 [GTC000247A]
4,3.9 nM,CN(c1nc(Nc2ccc3c(c2)COC(=O)N3)ncc1F)c1cccc2[nH]ncc12 [GTC000248A]
5,11.6 nM and 1.99 nM,CN(c1nc(Nc2ccc3c(c2)S(=O)(=O)NC3)ncc1F)c1cccc2[nH]ncc12 [GTC000249A]
6,2.81 nM and 3.59 nM and 14.9 nM and 5.77 nM,CCN(c1nc(Nc2ccc3cnn(CCCO)c3c2)ncc1F)c1cccc2[nH]ncc12 [GTC000250A]
7,6.11 nM and 4.06 nM and 3.67 nM,O=S1(=O)CCc2ccc(Nc3ncc(F)c(N(CCCO)c4cccc5[nH]ncc45)n3)cc21 [GTC000251A]
8,5.19 nM,O=S1(=O)NCc2ccc(Nc3ncc(F)c(N(CC4CCOC4)c4cccc5[nH]ncc45)n3)cc21 (stereo unspecified) [GTC000253A]
9,4.63 nM,CCN(c1nc(Nc2ccc3cnn(C)c3c2)ncc1F)c1cccc2[nH]ncc12 [GTC000255A]
10,5.02 nM,NS(=O)(=O)c1cccc(Nc2nccc(N(CCCO)c3cccc4[nH]ncc34)n2)c1 [GTC000259A]
11,5.48 nM,CCN(c1nc(Nc2ccc(C(N)=O)cc2)ncc1F)c1cccc2[nH]ncc12 [GTC000260A]
12,5.04 nM,CCN(c1nc(Nc2ccc(S(N)(=O)=O)cc2)ncc1F)c1cccc2[nH]ncc12 [GTC000261A]
13,5.09 nM,O=c1[nH]c2ccc(Nc3ncc(F)c(N(CCCO)c4cccc5[nH]ncc45)n3)cc2[nH]1 [GTC000262A]
14,4.86 nM,COCCCN(c1nc(Nc2ccc3[nH]c(=O)[nH]c3c2)ncc1F)c1cccc2[nH]ncc12 [GTC000263A]
15,5.6 nM,CN(c1nc(Nc2ccc3nn[nH]c3c2)ncc1F)c1cccc2[nH]ncc12 [GTC000265A]
16,6.76 nM,CCN(c1nc(Nc2ccc3c(c2)COC(=O)N3)ncc1F)c1cccc2[nH]ncc12 [GTC000268A]
17,6.97 nM,NCCCCCN(c1ccnc(Nc2ccc3[nH]c(=O)[nH]c3c2)n1)c1cccc2[nH]ncc12 [GTC000269A]
18,6.95 nM,Cn1ncc2ccc(Nc3nccc(N(CCCO)c4cccc5[nH]ncc45)n3)cc21 [GTC000270A]
19,6.62 nM,CCN(c1nc(Nc2ccc(C(=O)NC)cc2)ncc1F)c1cccc2[nH]ncc12 [GTC000271A]
20,6.95 nM,CCN(c1nc(Nc2ccc3c(c2)CC(=O)N3)ncc1F)c1cccc2[nH]ncc12 [GTC000272A]
21,6.78 nM,COCCCN(c1nc(Nc2ccc3c(c2)COC(=O)N3)ncc1F)c1cccc2[nH]ncc12 [GTC000273A]
22,6.08 nM,OCCCCN(c1ccnc(Nc2ccc3nn[nH]c3c2)n1)c1cccc2[nH]ncc12 [GTC000275A]
23,7.52 nM,COCCCN(c1nc(Nc2ccc3c(C)nn(CCCO)c3c2)ncc1F)c1cccc2[nH]ncc12 [GTC000279A]
24,7.4 nM,NCCCCN(c1ccnc(Nc2ccc3[nH]c(=O)[nH]c3c2)n1)c1cccc2[nH]ncc12 [GTC000280A]
